According to patent US12601740B2 (priority 2021, dated 2026):
≈ marks a conversion by molar mass, not a printed value.

What was measured:
[1] = test system: E. coli BAA 2340; assay: MIC by phage T7 amplification ELISA, serial microdilution in urine; conditions: Escherichia coli, BAA2340, 2 h
[2] = test system: E. coli 15597; assay: as above; conditions: Escherichia coli, 15597, 2 h
[3] = test system: E. coli BAA 197; assay: as above; conditions: Escherichia coli, BAA197, 2 h
[4] = test system: E. coli BAA 2471; assay: as above; conditions: Escherichia coli, BAA2471, 2 h
[5] = test system: E. coli BAA 2523; assay: as above; conditions: Escherichia coli, BAA2523, 2 h
[6] = test system: E. coli BAA 196; assay: as above; conditions: Escherichia coli, BAA196, 2 h
[7] = test system: E. coli O157:H7; assay: microbe, parasite or virus in culture; assay type: cell-based; conditions: Escherichia coli; E. coli strain O157:H7 in urine, ~1×10^6 cfu/mL, phage T7 amplification 2 hours at 37° C.
[8] = test system: E. coli BAA 2452; assay: MIC by phage T7 amplification ELISA, serial microdilution in urine; conditions: Escherichia coli, BAA2452, 2 h
[9] = test system: E. coli BAA 198; assay: as above; conditions: Escherichia coli, BAA198, 2 h

**Q.** Which results are given for CC(C)(O/N=C(\C(=O)N[C@@H]1C(=O)N2C(C(=O)[O-])=C(C[n+]3ccccc3)CS[C@H]12)c1csc(N)n1)C(=O)O [Ceftazidime]?
**A.** MIC [1]: > 64 µg/mL; MIC [2]: 0.5 µg/mL (≈ 0.915 µM); MIC [3]: > 64 µg/mL; MIC [4]: > 256 µg/mL; MIC [5]: > 256 µg/mL; MIC [6]: > 64 µg/mL; MIC [7]: 256 µg/mL (≈ 468 µM); MIC [8]: 16 µg/mL (≈ 29.3 µM); MIC [9]: > 64 µg/mL

**Q.** For C[C@@H](O)[C@H]1C(=O)N2C(C(=O)O)=C(S[C@@H]3CN[C@H](CNS(N)(=O)=O)C3)[C@H](C)[C@H]12 [Doripenem], which MIC [1] is on record?
**A.** 16 µg/mL (≈ 38 µM)

**Q.** And the MIC [2]?
**A.** > 64 µg/mL

**Q.** And the MIC [3]?
**A.** 32 µg/mL (≈ 76.1 µM)

**Q.** What about the MIC [4] of the same compound?
**A.** 256 µg/mL (≈ 609 µM)

**Q.** And the MIC [5]?
**A.** 0.5 µg/mL (≈ 1.19 µM)

**Q.** And the MIC [6]?
**A.** 16 µg/mL (≈ 38 µM)

**Q.** What about the MIC [7] of the same compound?
**A.** 0.25 µg/mL (≈ 0.595 µM)

**Q.** And the MIC [8]?
**A.** 16 µg/mL (≈ 38 µM)

**Q.** And the MIC [9]?
**A.** 32 µg/mL (≈ 76.1 µM)

**Q.** With C[C@@H](O)[C@H]1C(=O)N2C(C(=O)O)=C(S[C@@H]3CN[C@H](C(=O)N(C)C)C3)[C@H](C)[C@H]12 [Meropenem] as the compound, how does the MIC [1] read?
**A.** 16 µg/mL (≈ 41.7 µM)

**Q.** And the MIC [2]?
**A.** > 64 µg/mL

**Q.** What about the MIC [3] of the same compound?
**A.** 64 µg/mL (≈ 167 µM)

**Q.** And the MIC [4]?
**A.** 16 µg/mL (≈ 41.7 µM)

**Q.** What about the MIC [5] of the same compound?
**A.** 1 µg/mL (≈ 2.61 µM)

**Q.** And the MIC [6]?
**A.** 16 µg/mL (≈ 41.7 µM)

**Q.** And the MIC [7]?
**A.** 0.25 µg/mL (≈ 0.652 µM)

**Q.** What about the MIC [8] of the same compound?
**A.** 16 µg/mL (≈ 41.7 µM)

**Q.** What about the MIC [9] of the same compound?
**A.** 16 µg/mL (≈ 41.7 µM)

**Q.** For CO/N=C(\C(=O)N[C@@H]1C(=O)N2C(C(=O)[O-])=C(C[N+]3(C)CCCC3)CS[C@H]12)c1csc(N)n1 [Cefepime], which MIC [1] is on record?
**A.** 68 µg/mL (≈ 141 µM)

**Q.** What about the MIC [2] of the same compound?
**A.** 8 µg/mL (≈ 16.6 µM)

**Q.** What about the MIC [3] of the same compound?
**A.** > 64 µg/mL

**Q.** What about the MIC [4] of the same compound?
**A.** > 256 µg/mL

**Q.** And the MIC [5]?
**A.** 16 µg/mL (≈ 33.3 µM)

**Q.** What about the MIC [6] of the same compound?
**A.** 64 µg/mL (≈ 133 µM)

**Q.** And the MIC [7]?
**A.** 8 µg/mL (≈ 16.6 µM)

**Q.** And the MIC [8]?
**A.** 68 µg/mL (≈ 141 µM)

**Q.** What about the MIC [9] of the same compound?
**A.** 64 µg/mL (≈ 133 µM)

**Q.** Which results are given for Cc1onc(-c2ccccc2)c1C(=O)N[C@@H]1C(=O)N2[C@@H]1SC(C)(C)[C@@H]2C(=O)O [Oxacillin]?
**A.** MIC [1]: > 64 µg/mL; MIC [2]: 64 µg/mL (≈ 159 µM); MIC [3]: > 64 µg/mL; MIC [4]: > 256 µg/mL; MIC [5]: 256 µg/mL (≈ 638 µM); MIC [6]: > 64 µg/mL; MIC [7]: > 256 µg/mL; MIC [8]: 64 µg/mL (≈ 159 µM); MIC [9]: > 64 µg/mL

**Q.** With CO/N=C(\C(=O)N[C@@H]1C(=O)N2C(C(=O)O)=C(CSc3nc(=O)c(=O)[nH]n3C)CS[C@H]12)c1csc(N)n1 [Ceftriaxone] as the compound, how does the MIC [1] read?
**A.** > 64 µg/mL

**Q.** And the MIC [2]?
**A.** 8 µg/mL (≈ 14.4 µM)

**Q.** And the MIC [3]?
**A.** > 64 µg/mL

**Q.** And the MIC [4]?
**A.** > 256 µg/mL

**Q.** And the MIC [5]?
**A.** 256 µg/mL (≈ 462 µM)

**Q.** And the MIC [6]?
**A.** > 64 µg/mL

**Q.** And the MIC [7]?
**A.** 64 µg/mL (≈ 115 µM)

**Q.** And the MIC [8]?
**A.** 68 µg/mL (≈ 123 µM)

**Q.** What about the MIC [9] of the same compound?
**A.** > 64 µg/mL

**Q.** Which results are given for C[C@@H](O)[C@H]1C(=O)N2C(C(=O)O)=C(S[C@@H]3CN[C@H](C(=O)Nc4cccc(C(=O)O)c4)C3)[C@H](C)[C@H]12 [Ertapenem]?
**A.** MIC [1]: 68 µg/mL (≈ 143 µM); MIC [2]: 0.5 µg/mL (≈ 1.05 µM); MIC [3]: > 64 µg/mL; MIC [4]: > 256 µg/mL; MIC [5]: 8 µg/mL (≈ 16.8 µM); MIC [6]: 64 µg/mL (≈ 135 µM); MIC [7]: 2 µg/mL (≈ 4.21 µM); MIC [8]: 16 µg/mL (≈ 33.6 µM); MIC [9]: 64 µg/mL (≈ 135 µM)

**Q.** Which results are given for C[C@@H](O)[C@H]1C(=O)N2C(C(=O)O)=C(SCCN=CN)C[C@H]12 [Imipenem]?
**A.** MIC [1]: > 64 µg/mL; MIC [2]: 4 µg/mL (≈ 13.4 µM); MIC [3]: 32 µg/mL (≈ 107 µM); MIC [4]: 32 µg/mL (≈ 107 µM); MIC [5]: 64 µg/mL (≈ 214 µM); MIC [6]: 16 µg/mL (≈ 53.4 µM); MIC [7]: 64 µg/mL (≈ 214 µM); MIC [8]: 256 µg/mL (≈ 855 µM); MIC [9]: 64 µg/mL (≈ 214 µM)
